Read-outs that look alike come from different tables or passages of the source.
How the values were obtained:
[1] = target: T1, EED (1-441)-His protein (Homo sapiens, UniProt O75530); assay: EED-H3K27Me3 peptide competition binding assay by AlphaScreen; conditions: EED Alpha screen binding assay, read-out: Alpha screen
T1 construct: 20 nM EED (1-441)-His protein
Method: “N/A” stands for “not assessed”.
EED-H3K27Me3 peptide competition binding assay by AlphaScreen (α-screen)
2.5 μl of solutions containing 20 nM biotin-H3K27Me3 (19-33) peptide in the buffer (25 mM HEPES, pH 8, 0.02% Tween-20, 0.5% BSA) were added to the wells and then incubated with compound for 30 min. […] Then 10 μl of the detection beads mix was added to the plate and incubated in the dark at RT for 1 h. The final concentration of donor and acceptor beads was 10 μg/ml for each. […] The data were then fit to a dose response equation to get the IC50 values.

[2] = tested on: KARPAS422 human B cell lymphoma cell; assay: Cell proliferation, KARPAS422, 7 day treatment (WST-8); type: cell-based
Method in brief: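 Read-out was WST-8 absorbance at 450 nm after 1-4 h with reagent, taken after 7-day compound treatment (serial dilutions, 37 °C, 5% CO2) of 2 000-3 000 KARPAS422 cells per well. IC50 fitted by nonlinear regression on DMSO-normalized values.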

[3] = tested on: Pfeiffer cell line; assay: Anti-proliferative activity, Pfeiffer cell line, 7 day treatment; type: cell-based
Method in brief: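 Cells seeded at 2 000-3 000 per well were treated with serially diluted compounds for 7 days at 37° C, 5% CO2. Growth was measured by WST-8 assay read at 450 nm after 1-4 h reagent incubation. Readings were normalized to DMSO-treated cells and IC50 values derived by nonlinear regression.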

[4] = Homo sapiens, KARPAS-422, 168 h, anti-proliferative IC50 class, Karpas 422 cell line, 7 day treatment, read-out: Karpas Cell line
[5] = Homo sapiens, 168 h, anti-proliferative IC50 class, Pfeiffer cell line, 7 day treatment, read-out: Pfeiffer Cell line

T1 sequence (O75530 whole entry): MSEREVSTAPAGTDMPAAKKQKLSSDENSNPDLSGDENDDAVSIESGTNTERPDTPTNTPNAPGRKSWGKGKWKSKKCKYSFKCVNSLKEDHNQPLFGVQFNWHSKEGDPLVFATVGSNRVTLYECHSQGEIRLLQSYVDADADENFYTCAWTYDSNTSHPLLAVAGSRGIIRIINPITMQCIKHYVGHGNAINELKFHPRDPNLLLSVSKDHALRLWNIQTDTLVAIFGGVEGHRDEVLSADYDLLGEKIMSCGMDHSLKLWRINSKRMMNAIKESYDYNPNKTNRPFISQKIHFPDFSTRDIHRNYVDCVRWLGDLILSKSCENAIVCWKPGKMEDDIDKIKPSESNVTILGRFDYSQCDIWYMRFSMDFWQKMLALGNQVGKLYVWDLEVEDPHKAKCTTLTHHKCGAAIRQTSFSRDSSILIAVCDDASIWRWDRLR

| IC50 ([1]; IC50 class) [nM] | IC50 [2, 4] [nM] | IC50 [3, 5] [nM] | IC50 [1] [nM] | SMILES | further results |
| --- | --- | --- | --- | --- | --- |
| – | – | – | > 10 | O=C1Nc2ncccc2-c2cnc(NCc3c(F)ccc4c3CCO4)n3cnc1c23 [compound 4, 11-(((5-fluoro-2,3-dihydrobenzofuran-4-yl)methyl)amino)-2,4,5,10,11a-pentaazadibenzo[cd,f]azulen-3(4H)-one] | IC50 ([2]; Homo sapiens, KARPAS-422, 168 h, anti-proliferative IC50, Karpas 422 cell line, 7 day treatment, read-out: Karpas Cell line): > 100 nM; IC50 ([3]; Homo sapiens, 168 h, anti-proliferative IC50, Pfeiffer cell line, 7 day treatment, read-out: Pfeiffer Cell line): > 100 nM |
| – | – | – | 11.2 | O=C1c2ncn3c(NCc4c(F)ccc5c4CCO5)ncc(c23)-c2sccc2CN1C1CC1 [compound 87, 4-cyclopropyl-11-(((5-fluoro-2,3-dihydrobenzofuran-4-yl)methyl)amino)-4,5-dihydro-3H-8-thia-2,4,10,11a-tetraazacyclopenta[4,5]cycloocta[1,2,3-cd]inden-3-one] | IC50 ([2]; anti-proliferative IC50, Karpas 422 cell line, 7 day treatment, read-out: Karpas Cell line): 8.67 nM; IC50 ([3]; anti-proliferative IC50, Pfeiffer cell line, 7 day treatment, read-out: Pfeiffer Cell line): 0.018 nM |
| – | – | – | 0.62 | CS(=O)(=O)c1ncn2c(NCc3c(F)ccc4c3CCO4)ncc(-c3ccc(C(F)(F)F)nc3)c12 [compound 102, N-((5-fluoro-2,3-dihydrobenzofuran-4-yl)methyl)-1-(methylsulfonyl)-8-(6-(trifluoromethyl)pyridin-3-yl)imidazo[1,5-c]pyrimidin-5-amine] | IC50 ([2]; Homo sapiens, KARPAS-422, 168 h, read-out: Karpas Cell line (nM)): 0.94 nM; IC50 ([3]; Homo sapiens, Pfeiffer, 168 h, read-out: Pfeiffer Cell line (nM)): 0.59 nM |

Continued, molecule first:

| SMILES | IC50 ([1]; IC50 class) [nM] | IC50 [2, 4] [nM] | IC50 [3, 5] [nM] | IC50 [1] [nM] | further results |
| --- | --- | --- | --- | --- | --- |
| CS(=O)(=O)c1ncn2c(NCc3c(F)ccc4c3CCO4)c(C#N)cc(-c3ccc(C4CC4)nc3)c12 [E 26, 8-(6-cyclopropylpyridin-3-yl)-5-(((5-fluoro-2,3-dihydrobenzofuran-4-yl)methyl)amino)-1-(methylsulfonyl)imidazo[1,5-a]pyridine-6-carbonitrile] | 10 to 100 | 10 to 100 | < 10 | – | – |
| Cc1ncccc1-c1cc(C#N)c(NCc2c(F)ccc3c2CCO3)n2cnc(S(C)(=O)=O)c12 [E 27, 5-(((5-fluoro-2,3-dihydrobenzofuran-4-yl)methyl)amino)-8-(2-methylpyridin-3-yl)-1-(methylsulfonyl)imidazo[1,5-a]pyridine-6-carbonitrile] | 10 to 100 | 10 to 100 | < 10 | – | – |
| CC(C)N1Cc2cc(C(F)(F)F)ncc2-c2cnc(NCc3c(F)ccc4c3CCO4)n3cnc(c23)C1=O [E 40, 12-(((5-fluoro-2,3-dihydrobenzofuran-4-yl)methyl)amino)-4-isopropyl-7-(trifluoromethyl)-4,5-dihydro-3H-2,4,8,11,12a-pentaazabenzo[4,5]cycloocta[1,2,3-cd]inden-3-one] | < 10 | < 10 | < 10 | – | – |
| O=C1c2ncn3c(NCc4c(F)ccc5c4CCO5)ncc(c23)-c2ccc(C3COC3)nc2CN1CC(F)(F)F [E 51, 12-(((5-fluoro-2,3-dihydrobenzofuran-4-yl)methyl)amino)-7-(oxetan-3-yl)-4-(2,2,2-trifluoroethyl)-4,5-dihydro-3H-2,4,6,11,12a-pentaazabenzo[4,5]cycloocta[1,2,3-cd]inden-3-one] | < 10 | < 10 | < 10 | – | – |

Source: US12145944B2, “Imidazopyrimidines as EED inhibitors and the use thereof” (THE REGENTS OF THE UNIVERSITY OF MICHIGAN, priority 2019, dated 2024)
